According to patent US20260234139A1, “PGDH INHIBITORS AND METHODS OF MAKING AND USING” (Epirium Bio Inc., priority 2023, published 2026):

What was measured:
A549 = A549 EC50 (cell assay, method not described); assay type: cell-based; details: Homo sapiens, A549, A549
15-PGDH/HPGD = molecular target: T1, 15-PGDH/HPGD (Homo sapiens, UniProt P15428); assay: hPGDH inhibitor screening biochemical assay; details: 10 nM enzyme, 15 μM Prostaglandin E2, 0.25 mM NAD, fluorescence ex/em 340/485 nm
T1 construct: purchased R&D System 5660-DH
T1 sequence (P15428 1-266): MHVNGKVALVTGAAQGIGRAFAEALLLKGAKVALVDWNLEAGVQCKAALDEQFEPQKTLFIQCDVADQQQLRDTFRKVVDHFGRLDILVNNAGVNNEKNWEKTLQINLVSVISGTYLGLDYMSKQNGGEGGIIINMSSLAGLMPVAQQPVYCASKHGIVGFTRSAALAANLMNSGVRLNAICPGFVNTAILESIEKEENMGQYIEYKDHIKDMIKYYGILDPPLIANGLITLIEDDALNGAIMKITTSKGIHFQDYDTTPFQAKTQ
Protocol: A hydroxyprostaglandin dehydrogenase inhibition screening biochemical assay can be performed to assess the synthesized inhibitors provided herein. Provided herein is an exemplary biochemical assay for hPGDH inhibitor screening.
The in vitro biochemical assay can be performed in white, 384 plates in total 20 μl reaction volume consisting of 10 nM of 15-PGDH/HPGD (R&D System #5660-DH), 15 μM Prostaglandin E2 (Sigma, Cat #P5640-10 MG) and 0.25 mM B-Nicotinamide adenine dinucleotide sodium salt (Sigma, Cat #N0632-5G) made in reaction buffer (50 mM Tris-HCl, pH 7.5, 0.01% Tween 20) at 10-point dose response curve for test/tool compounds. Briefly, 5 μl (4×) of compounds solution and 5 μl (final concentration, 10 nM) of enzyme solution is added to white 384 well plates and incubated for 10 mins at 37° C. 5 μl (4×) of Prostaglandin E2 and 5 μl (4×) of β-Nicotinamide adenine dinucleotide sodium salt is added to the wells and incubated for 10 mins at room temperature. Fluorescence is recorded at ex/em=340 nm/485 nm.

| EC50 (A549) | IC50 (15-PGDH/HPGD) | SMILES |
| --- | --- | --- |
| < 100 nM | < 100 nM | O[C@@H](COC1CCC1)c1cnc2c(cnn2-c2cncc(-c3nnc[nH]3)c2)c1 [Compound 117A] |
| ≥ 1000 nM | ≥ 1000 nM | CC(C)OC[C@H](O)c1cnc2c(cnn2-c2ccc(CC(=O)O)cc2)c1 [Compound 71B] |
| < 100 nM | < 100 nM | CC1(OC[C@@H](O)c2cnc3c(cnn3-c3ccc(C(=O)O)cc3)c2)CC1 [Compound 92B] |
| ≥ 1000 nM | 100 to 1000 nM | CN(C)C[C@@H](O)c1cnc2c(cnn2-c2cccc(-c3nnc[nH]3)c2)c1 [Compound 25B] |
| 100 to 1000 nM | < 100 nM | O[C@H](COC1CCC1)c1cnc2c(ccn2-c2cccc(-c3nnc[nH]3)c2)n1 [Compound 30A] |
| 100 to 1000 nM | < 100 nM | O=C(O)c1ccc(-n2ccc3nc([C@H](O)COCC4CC4)cnc32)cc1 [Compound 112B] |
| 100 to 1000 nM | < 100 nM | COCC[C@H](O)c1cnc2c(cnn2-c2cccc(-c3nnc[nH]3)c2)c1 [Compound 36B] |
| 100 to 1000 nM | < 100 nM | COC1([C@@H](O)c2cnc3c(cnn3-c3cccc(-c4nnc[nH]4)c3)c2)CC1 [Compound 59A] |
| ≥ 1000 nM | 100 to 1000 nM | CC(C)(O)[C@H](O)c1cnc2c(cnn2-c2cccc(-c3nnc[nH]3)c2)c1 [Compound 33A, (R)-1-(1-(3-(4H-1,2,4-triazol-3-yl)phenyl)-1H-pyrazolo[3,4-b]pyridin-5-yl)-2-methylpropane-1,2-diol] |
| 100 to 1000 nM | < 100 nM | COC(C)(C)CC[C@H](O)c1cnc2c(cnn2-c2cccc(-c3nnc[nH]3)c2)c1 [Compound 55A] |
| ≥ 1000 nM | < 100 nM | O=C(O)c1ccc(-n2ncc3cc([C@H](O)COC4CCC4)cnc32)cc1F [Compound 94B] |
| < 100 nM | < 100 nM | COC(C)(C)CC[C@@H](O)c1cnc2c(cnn2-c2cccc(-c3nnc[nH]3)c2)c1 [Compound 55B] |
| ≥ 1000 nM | < 100 nM | Cc1nn(-c2ccc(C(=O)O)cc2)c2ncc([C@@H](O)COC3CCC3)cc12 [Compound 109A] |
| 100 to 1000 nM | < 100 nM | NC(=O)c1ccc(-n2ncc3cc([C@@H](O)COC4CCC4)cnc32)cc1 [Compound 81B] |
| 100 to 1000 nM | < 100 nM | CC(C)(O)CC[C@@H](O)c1cnc2c(cnn2-c2cccc(-c3nnc[nH]3)c2)c1 [Compound 56B] |
| ≥ 1000 nM | 100 to 1000 nM | O=C(O)CCc1ccc(-n2ncc3cc([C@@H](O)COC4CCCC4)cnc32)cc1F [Compound 88A] |
| ≥ 1000 nM | < 100 nM | O=C(O)c1ccc(-n2ncc3cc([C@@H](O)COC4CCCC4)cnc32)cc1 [Compound 89A] |
| 100 to 1000 nM | < 100 nM | O=C(O)c1ccc(-n2ncc3cc([C@@H](O)COC4CCC4)cnc32)cn1 [Compound 96B] |
| ≥ 1000 nM | < 100 nM | CC(C)(C)OC[C@H](O)c1cnc2c(cnn2-c2cccc(-c3nnc[nH]3)c2)c1 [Compound 32A] |

| EC50 (A549) | IC50 (15-PGDH/HPGD) | SMILES |
| --- | --- | --- |
| 100 to 1000 nM | < 100 nM | COC(C)(C)C[C@H](O)c1cnc2c(cnn2-c2cccc(-c3nnc[nH]3)c2)c1 [Compound 54B] |
| < 100 nM | < 100 nM | CC(C)OC[C@@H](O)c1cnc2c(ccn2-c2cccc(-c3nnc[nH]3)c2)n1 [Compound 20A] |
| < 100 nM | < 100 nM | COCCNC(=O)c1ccc(-n2ncc3cc([C@@H](O)COC4CCC4)cnc32)cc1 [Compound 118A] |
| < 100 nM | < 100 nM | CC(C)(C)OC[C@@H](O)c1cnc2c(ccn2-c2cccc(-c3nnc[nH]3)c2)c1 [Compound 31B] |
| ≥ 1000 nM | 100 to 1000 nM | CC(C)(O)[C@@H](O)c1cnc2c(cnn2-c2cccc(-c3nnc[nH]3)c2)c1 [Compound 33B, (S)-1-(1-(3-(4H-1,2,4-triazol-3-yl)phenyl)-1H-pyrazolo[3,4-b]pyridin-5-yl)-2-methylpropane-1,2-diol] |
| 100 to 1000 nM | < 100 nM | CCC1(OC[C@H](O)c2cnc3c(cnn3-c3ccc(C(=O)O)cc3)c2)CC1 [Compound 93A] |
| < 100 nM | < 100 nM | O=C(O)c1ccc(-n2ncc3cc([C@H](O)COC4(C(F)(F)F)CCC4)cnc32)cc1 [Compound 115B] |
| ≥ 1000 nM | < 100 nM | CC1(COC[C@@H](O)c2cnc3c(cnn3-c3ccc(C(=O)O)cc3)c2)CC1 [Compound 106B] |
| 100 to 1000 nM | < 100 nM | O[C@H](c1cnc2c(cnn2-c2cccc(-c3nnc[nH]3)c2)c1)[C@@H]1CCOC1 [Compound 68D] |
| ≥ 1000 nM | ≥ 1000 nM | O[C@@H](c1cnc2c(cnn2-c2cccc(-c3nnc[nH]3)c2)c1)C1(OCC(F)F)CC1 [Compound 73B] |
| < 100 nM | < 100 nM | C[C@H]1C[C@@H](OC[C@@H](O)c2cnc3c(cnn3-c3ccc(C(=O)O)cc3)c2)C1 [Compound 127B] |
| < 100 nM | < 100 nM | CC(C)(O)C[C@H](O)c1cnc2c(cnn2-c2cccc(-c3nnc[nH]3)c2)c1 [Compound 43B] |
| < 100 nM | < 100 nM | CC(C)CC[C@@H](O)c1cnc2c(ccn2-c2ccc(C(=O)O)cc2)n1 [Compound 40B] |
| 100 to 1000 nM | < 100 nM | O[C@@H](COC1CC1)c1cnc2c(cnn2-c2cccc(-c3nnc[nH]3)c2)c1 [Compound 37A] |
| < 100 nM | < 100 nM | CCC1(OC[C@@H](O)c2cnc3c(cnn3-c3ccc(C(=O)O)cc3)c2)CC1 [Compound 93B] |
| < 100 nM | < 100 nM | O[C@@H](COC1CCC1)c1cnc2c(ccn2-c2cccc(-c3nnc[nH]3)c2)n1 [Compound 30B] |
| < 100 nM | < 100 nM | CNC(=O)c1cccc(-n2ncc3cc([C@@H](O)COC4CCC4)cnc32)c1 [Compound 110A] |
| ≥ 1000 nM | ≥ 1000 nM | CSc1ccc(-n2ncc3cc([C@H](O)COC4CCC4)cnc32)cc1 [Compound 119B] |
| ≥ 1000 nM | ≥ 1000 nM | CN(C)C(=O)c1ccc(-n2ncc3cc([C@@H](O)COC4CCC4)cnc32)cc1 [Compound 80B] |

| EC50 (A549) | IC50 (15-PGDH/HPGD) | SMILES |
| --- | --- | --- |
| 100 to 1000 nM | < 100 nM | CC(C)OC[C@@H](O)c1cnc2c(ccn2-c2ccc(C(=O)O)cc2)n1 [Compound 49B] |
| 100 to 1000 nM | 100 to 1000 nM | O[C@@H](c1cnc2c(cnn2-c2cccc(-c3nnc[nH]3)c2)c1)C1C2CCCCC21 (stereo partly drawn) [Compound 51B] |
| 100 to 1000 nM | 100 to 1000 nM | CC(C)OC[C@H](O)c1cnc2c(cnn2-c2ccc(CCCC(=O)O)cc2)c1 [Compound 66B] |
| < 100 nM | < 100 nM | CCCC(F)(F)[C@@H](O)c1cnc2c(ccn2-c2cccc(-c3nnc[nH]3)c2)n1 [Compound 35A] |
| < 100 nM | < 100 nM | O[C@H](c1cnc2c(ccn2-c2cccc(-c3nnc[nH]3)c2)c1)C1CCC1 [Compound 10A] |
| < 100 nM | < 100 nM | CCCC(F)(F)[C@H](O)c1cnc2c(ccn2-c2cccc(-c3nnc[nH]3)c2)c1 [Compound 4B] |
| ≥ 1000 nM | < 100 nM | O=C(O)c1ccc(-n2ncc3cc([C@H](O)COCC4CC4)cnc32)cc1 [Compound 107B] |
| 100 to 1000 nM | < 100 nM | CCOC1([C@@H](O)c2cnc3c(cnn3-c3ccc(C(=O)O)cc3)c2)CC1 [Compound 58B] |
| < 100 nM | < 100 nM | O=C(O)c1ccc(-n2ncc3cc([C@@H](O)COC4CCC4)cnc32)cc1F [Compound 94A] |
| 100 to 1000 nM | < 100 nM | CC(C)OC[C@H](O)c1cnc2c(cnn2-c2ccc(C(=O)O)cc2)c1 [Compound 48A] |
| < 100 nM | < 100 nM | O=C(O)CCc1ccc(-n2ncc3cc([C@@H](O)COC4CC4)cnc32)cc1F [Compound 86A] |
| 100 to 1000 nM | < 100 nM | CC(C)(O)CC[C@H](O)c1cnc2c(cnn2-c2cccc(-c3nnc[nH]3)c2)c1 [Compound 56A] |
| ≥ 1000 nM | ≥ 1000 nM | CCOC1([C@H](O)c2cnc3c(cnn3-c3cccc(-c4nnc[nH]4)c3)c2)CC1 [Compound 63A] |
| 100 to 1000 nM | < 100 nM | CC(C)OCC[C@H](O)c1cnc2c(ccn2-c2cccc(-c3nnc[nH]3)c2)c1 [Compound 41A] |
| 100 to 1000 nM | < 100 nM | O=C(O)c1ccc(-n2ccc3nc([C@@H](O)C4CC(F)(F)C4)cnc32)cc1 [Compound 46B] |
| ≥ 1000 nM | ≥ 1000 nM | O[C@H](COC1CCC1)c1cnc2c(cnn2-c2ccc(N3CCOCC3)cc2)c1 [Compound 76B] |
| < 100 nM | < 100 nM | CC(C)OC[C@@H](O)c1cnc2c(cnn2-c2ccc(CCCC(=O)O)cc2)c1 [Compound 66A] |
| < 100 nM | < 100 nM | CC(C)(OCC(F)F)[C@@H](O)c1cnc2c(cnn2-c2cccc(-c3nnc[nH]3)c2)c1 [Compound 61A] |
| < 100 nM | < 100 nM | O[C@H](COC1CCC1)c1cnc2c(cnn2-c2cccc(-c3nnc[nH]3)c2)c1 [Compound 24B] |
